In the data set the test system is MDA-MB-231. The data set can be described thus: alamar-blue cell viability / cytotoxicity of PEI, doxorubicin and mixtures. Format: cell-based, human. The protocol: All cells were maintained at 37° C. in a humidified incubator with 5% CO2. MDA-MB-231 growing in the DMEM medium were harvested by trypsin-EDTA, and an initial concentration of 1×106 and further dilutions were made and seeded into wells of a 96-well plate (100 μL for each well). The medium without cells was used as negative control, and the plate was incubated for 18 h to allow cell attachment. Then another 100 μL, medium with desirable concentration drug were added into the well. After 24 h and 48 h incubation, 22 μL of alamar-blue (0.5 mg per mL) was added to each well. The absorbance was measured after further 4 h incubation at 530 nm and 590 nm using PowerwaveXPS plate reader. The plate was also incubated for the following 24 hours to measure the maximum dye reduction. Percentage reduction of alamar-blue is typically calculated using equation (1):
[formula] where At, An and Ac are recorded absorbance of test wells for test group, negative control group and positive control group.
Referring to FIG. 2, the cell viability is shown as a function of the molecular weight of the cationic polymer. […] All cells were maintained at 37° C. in a humidified incubator with 5% CO2. MDA-MB-231, 4T1 and HUVECs, HCC-1806, Hs-587T, MCF-7 cells growing in the log phase of growth were harvested by trypsin-EDTA, and an initial concentration of 1×10^6 and further dilutions were made and seeded into wells of a 96-well plate (100 μL, for each well). The medium without cells was used as negative control, and the plate was incubated for 18 h to allow cell attachment. Then another 100 μL medium with desirable concentration drug were added into the well. After 24 h and 48 h incubation, 22 μL, of alamar-blue (0.5 mg per mL) was added to each well. The absorbance was measured after further 4 h incubation at 530 nm and 590 nm using Powerwave XPS plate reader. The plate was also incubated for the following 24 hours to measure the maximum dye reduction. Percentage reduction of alamar-blue is typically calculated using equation (1).
(Resazurin is reduced to fluorescent resorufin, in cell work by metabolically active cells.)

With `COc1cccc2c1C(=O)c1c(O)c3c(c(O)c1C2=O)C[C@@](O)(C(=O)CO)C[C@@H]3O[C@H]1C[C@H](N)[C@H](O)[C@H](C)O1` [doxorubicin], the cell viability entry by setting is: (FIG. 1, drug concentrations between 0 μM and 5 μM) “approximately 70%”; (FIG. 2, 0.3 to 0.6 μg doxorubicin per well, 0 μg of PEI) 60-70%; (FIG. 3 line 304, doxorubicin less than 5 μM) “about 70%”.

The record behind these values is patent US10391112B2, “Cationic polymers as co-drugs for chemotherapeutic agents” (Northeastern University, priority 2015, dated 2019).
